Assay results taken from patent EP0110955B1, “BRAIN-SPECIFIC DRUG DELIVERY” (UNIVERSITY OF FLORIDA, priority 1982, dated 1983).

How the values were obtained:
[1] = Enzymatic hydrolytic cleavage and rate of oxidation of compound 5c in rat liver homogenate (HPLC); format: in vitro ADME, Sprague-Dawley rats; conditions: rat, pH 7.4; 20% liver homogenate, 37°C, pseudo first order; read-out: apparent half-lives for the disappearance
Description: (§1) A high pressure liquid chromatography (HPLC) method was developed for the studies of the degradation of the dihydropyridine dopamine derivative. The chromatographic analysis was performed on a component system consisting of a Waters Associate Model 6000A solvent delivery system, Model U6K injector and Model 440 dual channel absorbance detector operated at 254 and 280 nm. A 30 cm x 3.9 mm (internal diameter) reverse phase µBondapak C18 column (Waters Associates), operated at ambient temperature, was used for all separations. The mobile phase used for the separation of the dihydropyridine derivative, its degradation products and oxidation products consisted of 0.005 M solution of 1-heptanesul- fonic acid sodium salt (PIC B-7 Eastman Kodak) in CH3CN; 0.01 M aqueous dibasic ammonium phosphate (2.5:1). A peak was always shown at a retention time of 2.2 min which is believed to be a monodeacylated dihydropyridine derivative, since it eventually did result in 6a.
The liver homogenate was prepared by the following method. Three Sprague-Dawley rats were killed by decapitation and the livers were removed, weighed and homogenized by tissue homogenizer in 0.11 M aqueous phosphate buffer, pH 7.4, to make 20% liver homogenate. […] When all samples had been collected, they were centrifuged and each supernatant was filtered through Whatman 1 filter paper and analyzed by HPLC.

[2] = Chemical oxidation by hydrogen peroxide and silver nitrate; format: physicochemical; conditions: H2O2 or alcoholic AgNO3 solution
Description: The stability of the 1,4-dihydropyridine derivatives (5) was determined in the presence of the oxidizing agents, alcoholic AgN03 and hydrogen peroxide. The in vitro rates of oxidation of the 1,4-dihydropyridine derivative (5c) in 80% plasma, 20% brain homogenate, 20% liver homogenate and in whole blood were determined.
To 10 ml of 30% H202 was added 0.2 g of the dihydropyridine derivative (products of Examples 5 or 8). The mixture was stirred and samples were taken to check the UV spectrum.
To 5 ml of saturated methanolic AgN03 solution was added 1 ml of 5% methanolic solution of the dihydropyridine derivative. The mixture was shaken and left for 5 min for complete precipitation of silver, centrifuged and an aliquot was taken to check the UV spectrum. Complete oxidation to the quaternary salts was observed.

[3] = Enzymatic hydrolytic cleavage and rate of oxidation of compound 5c in human plasma (HPLC); format: in vitro ADME; conditions: 80% plasma, 37°C, pseudo first order, read-out: apparent half-lives for the disappearance
Description: as §1
The freshly collected plasma used was obtained at the Civitan Regional Blood Center, Inc. (Gainesville, Florida) and contained about 80% plasma diluted with anticoagulant citrate phosphate dextrose solution U.S.P. The plasma was stored in a refrigerator and used the next day. […] When all samples had been collected, they were centrifuged and the supernatants were filtered through Whatman 1 filter papers and analyzed to HPLC.

[4] = Enzymatic hydrolytic cleavage and rate of oxidation of compound 5c in rat brain homogenate (HPLC); format: in vitro ADME, Sprague-Dawley rats; conditions: rat, pH 7.4; 20% brain homogenate, 37°C, pseudo first order; read-out: apparent half-lives for the disappearance
Description: as §1
The brain homogenate was prepared by the following method. Five Sprague-Dawley rats were killed by decapitation and the brains were removed, weighed (total weight 9.85 g) and homogenized in 49.3 ml of aqueous 0.11 M phosphate buffer, pH 7.4. The homogenate was centrifuged and the supernatant was used for the test. […] Each supernatant was filtered through two Whatman 1 filter papers and analyzed by HPLC.

[5] = Enzymatic hydrolytic cleavage and rate of oxidation of compound 5c in human blood (HPLC); format: in vitro ADME; conditions: whole citrated blood, 37°C, pseudo first order, read-out: apparent half-lives for the disappearance
Description: as §1
The freshly collected heparinized blood was obtained at the Civitan Regional Blood Center, Inc. (Gainesville, Florida). The blood was stored in a refrigerator and used the next day. […] When all samples had been collected, they were centrifuged and the supernatants were filtered using Whatman 4 filter paper and analyzed by HPLC.

[6] = Concentration of compound 6a in brain and blood after parenteral administration of 5c; format: in vivo, Male Sprague-Dawley rats; conditions: after administration of 5c, rat
Description: The dihydropyridine derivative (5c) was then selected for the in vivo study. A solution in DMSO (dimethylsulfoxide) was injected through the jugular vein to a group of male Sprague-Dawley rats which were then sacrificed at various time intervals; their blood and brains were analyzed for the quaternary percursor of dopamine (6a). The in vivo dopaminergic activities of the selected compounds 5c vs. 6a were then determined.
Male Sprague-Dawley rats of average weight of 150 ± 10g were used. The rats were anesthetized with IM injection of Inovar and the jugular was exposed. Compound 5c was injected intrajugularly in the form of 10% solution in DMSO at a dose of 64.2 mg/kg (equivalent to 50 mg/kg compound 6a). The injection was given at a rate of 24 µl/min using a calibrated infusion pump. […] The weighed brain was homogenized with 0.5 ml of distilled water, 3 ml of acetonitrile was added and the mixture was rehomogenized thoroughly, centrifuged, filtered and then analyzed for compound 6a using the HPLC method. The tubes containing the blood were shaken vigorously, centrifuged, decanted and also analyzed for compound 6a using the HPLC method. Quantitation was done by using a recovery standard curve obtained by introducing a known amount of 6a in either brain homogenate or blood and then treated in the same manner. […]

CN1C=CCC(C(=O)NCCc2ccc(OC(=O)C(C)(C)C)c(OC(=O)C(C)(C)C)c2)=C1 [5c, 1-Methyl-3-(N-[β-(3,4-dipivalyloxyphenyl)-ethyl]}carbamoyl-1,4-dihydropyridine]
half-life at 900 µM [1]: 6 min
oxidation to the corresponding quaternary salt 6c [2]: quantitatively oxidized
half-life at 3050 µM [3]: 51 min
half-life at 1800 µM [4]: 17 min
half-life at 900 µM [5]: 18 min
formation of O-methyl metabolites (9, 10) in the brain [6]: No formation of O-methyl metabolites (9, 10) could be detected
